Assay results: patent publication US20110034507A1, “FARNESOID X RECEPTOR AGONISTS” (SMITHKLINE BEECHAM CORPORATION, priority 2007, published 2011)

Target: T1, Human FXRα Ligand Binding Domain (Homo sapiens, UniProt Q96RI1)
T1 construct: polyhistidine (pRSET-A vector leader) (N); made in house; host or cells: E. coli BL21 (DE3), pRSET-A vector
T1 sequence (Q96RI1 237-472 isoform Q96RI1-2): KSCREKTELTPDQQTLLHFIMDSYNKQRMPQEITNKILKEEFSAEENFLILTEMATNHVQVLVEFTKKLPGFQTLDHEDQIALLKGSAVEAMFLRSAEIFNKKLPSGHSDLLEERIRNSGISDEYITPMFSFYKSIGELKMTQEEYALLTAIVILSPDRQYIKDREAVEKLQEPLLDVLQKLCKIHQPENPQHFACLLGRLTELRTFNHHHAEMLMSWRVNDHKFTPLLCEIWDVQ
Assay: FXR Cofactor Binding Assay (ligand mediated SRC-1 cofactor peptide interaction, time resolved fluorescence)
Type: biochemical
Conditions: FXRα LBD / SRC-1 (LCD2, 676-700) peptide, TRF; read-out: Activity (pEC50) (converted)
Text: Determination of a ligand mediated cofactor peptide interaction to quantify ligand binding to the nuclear receptor Farnesoid X Receptor (FXR). The method measures the ability of putative ligands to modulate the interaction between the purified bacterial expressed FXRα ligand binding domain (LBD) and a synthetic biotinylated peptide based on residues 676-700 of steroid receptor coactivator-1 (SRC-1) (LXXLL-containing domain-2 where L is the amino acid leucine and X indicates any other amino acid (LCD2), 676-700). The sequence of the SRC-1 peptide used is as published in Iannone, M. A., et al., 2001 Cytometry 44:326-337 where the N-terminus was biotinylated (B) and the C-terminus was amidated. Detection of the associated complex was measured by time resolved fluorescence (TRF). The purified LBD of FXR was labeled with biotin, then mixed with stoichiometric amounts of allophycocyanin (APC) labeled streptavidin (Molecular Probes). The biotinylated peptide was then mixed with a ½ stoichiometric amount of europium labeled streptavidin (Wallac Inc). Each was then blocked with a 5 fold excess of biotin and allowed to equilibrate for 15 min. Equimolar amounts of receptor and peptide were mixed together and were allowed to equilibrate for at least 30 min prior to the addition to either a variable or constant concentrations of the sample for which the affinity is to be determined. After equilibration, the time-resolved fluorescent signal was quantitated using a fluorescent plate reader. The affinity of the test compound was estimated from a plot of fluorescence versus concentration of test compound added.
Ligands that promote the complex formation induce a concentration-dependent increase in time-resolved fluorescent signal.
Human FXRα Ligand Binding Domain (FXRα LBD) was expressed in E. coli strain BL21 (DE3) as an amino-terminal polyhistidine tagged fusion protein. Expression was under the control of an isopropyl-β-D-thiogalactopyranoside (IPTG) inducible T7 promoter. DNA encoding this recombinant protein is subcloned into the pRSET-A expression vector (Invitrogen). The coding sequence of Human FXRα LBD was derived from Genbank accession number U 68233 (amino acids 237 to 472).
Ten-liter fermentation batches were grown in Rich PO4 media with 0.1 mg/mL Ampicillin at 25° C. for 12 hours, cooled to 9° C. and held at that temperature for 36 hours to a density of OD600=14. At this cell density, 0.25 mM IPTG is added and induction proceeded for 24 hours at 9° C., to a final OD600=16. Cells are harvested by centrifugation (20 minutes, 3500×gravity, 4° C.), and concentrated cell slurries were stored in phosphate buffered saline (PBS) at […].
Routinely, 30-40 g cell paste (equivalent to 2-3 liters of the fermentation batch) was resuspended in 200-250 mL Tris buffered saline (TBS), pH 7.2 (25 mM Tris-hydroxymethylamino methane (Tris), 150 mM sodium chloride). Cells were lysed by passing 3 times through a French Press and cell debris was removed by centrifugation (30 minutes, 20,000×gravity, 4° C.). The cleared supernatant was filtered through course pre-filters, and TBS, pH 7.2, 500 mM imidazole was added to obtain a final imidazole concentration of 50 mM. This lysate was loaded onto a column (6×8 cm) packed with Sepharose [Ni^++ charged] Chelation resin (Pharmacia) and pre-equilibrated with TBS pH 7.2/50 mM imidazole. After washing to baseline absorbance with equilibration buffer, the column was washed with one column volume of TBS pH 7.2 containing 90 mM imidazole. FXRα LBD was eluted directly with 365 mM imidazole. Column fractions were pooled and dialyzed against TBS, pH 7.2, containing 0.5 mM EDTA and 5 mM DTT. The dialyzed protein sample was concentrated using Centri-prep 10 K (Amicon) and subjected to size exclusion, using a column (3×90 cm) packed with Sepharose S-75 resin (Pharmacia) pre-equilibrated with TBS, pH 7.2, containing 0.5 mM ethylene diamine tetraacetic acid (EDTA) and 5 mM dithiothreitol (DTT).

SMILES | EC50 [nM]
CC(C)c1onc(-c2c(Cl)cccc2Cl)c1COc1ccc2cc(-c3ccc(CCC(=O)O)cc3)ccc2c1 [Example 23, 3-{4-[6-({[3-(2,6-Dichlorophenyl)-5-(1-methylethyl)-4-isoxazolyl]methyl}oxy)-2-naphthalenyl]phenyl}propanoic acid] | 102 to 1000
CC(C)c1onc(-c2c(Cl)cccc2Cl)c1COc1ccc2cc(-c3ccc(C(=O)O)cn3)ccc2c1 [Example 24, 6-[6-({[3-(2,6-Dichlorophenyl)-5-(1-methylethyl)-4-isoxazolyl]methyl}oxy)-2-naphthalenyl]-3-pyridinecarboxylic acid] | 102 to 1000
CC(C)c1onc(-c2c(Cl)cccc2Cl)c1COc1ccc2cc(-c3ccc(C(=O)O)s3)ccc2c1 [Example 25, 5-[6-({[3-(2,6-Dichlorophenyl)-5-(1-methylethyl)-4-isoxazolyl]methyl}oxy)-2-naphthalenyl]-2-thiophenecarboxylic acid] | 102 to 1000
CC(C)c1onc(-c2c(Cl)cccc2Cl)c1COc1ccc2cc(-c3cccc(N(S(=O)(=O)C(F)(F)F)S(=O)(=O)C(F)(F)F)c3)ccc2c1 [Example 26, N-{3-[6-({[3-(2,6-Dichlorophenyl)-5-(1-methylethyl)-4-isoxazolyl]methyl}oxy)-2-naphthalenyl]phenyl}-1,1,1-trifluoro-N-[(trifluoromethyl)sulfonyl]methanesulfonamide] | 102 to 1000
CC(=O)N(C(C)=O)c1cccc(-c2ccc3cc(OCc4c(-c5c(Cl)cccc5Cl)noc4C(C)C)ccc3c2)c1 [Example 27, N-acetyl-N-{3-[6-({[3-(2,6-dichlorophenyl)-5-(1-methylethyl)-4-isoxazolyl]methyl}oxy)-2-naphthalenyl]phenyl}acetamide] | 102 to 1000
CC(C)c1onc(-c2c(Cl)cccc2Cl)c1COc1ccc2cc(-c3cccc(NS(=O)(=O)C(F)(F)F)c3)ccc2c1 [Example 28, N-{3-[6-({[3-(2,6-dichlorophenyl)-5-(1-methylethyl)-4-isoxazolyl]methyl}oxy)-2-naphthalenyl]phenyl}-1,1,1-trifluoromethanesulfonamide] | 102 to 1000
CC(=O)Nc1cccc(-c2ccc3cc(OCc4c(-c5c(Cl)cccc5Cl)noc4C(C)C)ccc3c2)c1 [Example 29, N-{3-[6-({[3-(2,6-dichlorophenyl)-5-(1-methylethyl)-4-isoxazolyl]methyl}oxy)-2-naphthalenyl]phenyl}acetamide] | 102 to 1000
CC(C)c1onc(-c2c(Cl)cccc2Cl)c1COc1ccc2cc(-c3cccc(OC(F)(F)F)c3)ccc2c1 [Example 30, 3-(2,6-Dichlorophenyl)-5-(1-methylethyl)-4-{[(6-{3-[(trifluoromethyl)oxy]phenyl}-2-naphthalenyl)oxy]methyl}isoxazole] | 102 to 1000
CC(=O)Nc1ccc(-c2ccc3cc(OCc4c(-c5c(Cl)cccc5Cl)noc4C(C)C)ccc3c2)cc1 [Example 31, N-{4-[6-({[3-(2,6-dichlorophenyl)-5-(1-methylethyl)-4-isoxazolyl]methyl}oxy)-2-naphthalenyl]phenyl}acetamide] | 102 to 1000
CC(C)c1onc(-c2c(Cl)cccc2Cl)c1COc1ccc2cc(-c3ccc(NS(=O)(=O)C(F)(F)F)cc3)ccc2c1 [Example 32, N-{4-[6-({[3-(2,6-dichlorophenyl)-5-(1-methylethyl)-4-isoxazolyl]methyl}oxy)-2-naphthalenyl]phenyl}-1,1,1-trifluoromethanesulfonamide] | 102 to 1000
CC(C)c1onc(-c2c(Cl)cccc2Cl)c1COc1ccc2ccc(-c3cccc(C(=O)O)c3)cc2c1 [Example 33, 3-[7-({[3-(2,6-Dichlorophenyl)-5-(1-methylethyl)-4-isoxazolyl]methyl}oxy)-2-naphthalenyl]benzoic acid] | 102 to 1000
CC(C)c1onc(-c2c(Cl)cccc2Cl)c1COc1ccc2cc(-c3ccc(Cl)c(C(=O)O)c3)ccc2c1 [Example 34, 2-Chloro-5-[6-({[3-(2,6-dichlorophenyl)-5-(1-methylethyl)-4-isoxazolyl]methyl}oxy)-2-naphthalenyl]benzoic acid] | 102 to 1000
CC(C)c1onc(-c2c(Cl)cccc2Cl)c1COc1ccc2cc(-c3ccc(F)c(C(=O)O)c3)ccc2c1 [Example 35, 5-[6-({[3-(2,6-Dichlorophenyl)-5-(1-methylethyl)-4-isoxazolyl]methyl}oxy)-2-naphthalenyl]-2-fluorobenzoic acid] | 102 to 1000
CC(C)c1onc(-c2c(Cl)cccc2Cl)c1COc1ccc2cc(-c3cccc(C(=O)O)c3)sc2c1 [Example 36, 3-[6-({[3-(2,6-Dichlorophenyl)-5-(1-methylethyl)-4-isoxazolyl]methyl}oxy)-1-benzothien-2-yl]benzoic acid] | 102 to 1000
CC(C)c1onc(-c2c(Cl)cccc2Cl)c1CNc1nc2ccc(-c3cccc(C(=O)O)c3)cc2s1 [Example 37, 3-[2-({[3-(2,6-Dichlorophenyl)-5-(1-methylethyl)-4-isoxazolyl]methyl}amino)-1,3-benzothiazol-6-yl]benzoic acid] | 102 to 1000
CC(C)c1onc(-c2c(Cl)cccc2Cl)c1COc1ccc2cc(-c3cccc(C(=O)O)c3)ccc2c1 [Example 38, 3-[6-({[3-(2,6-Dichlorophenyl)-5-(1-methylethyl)-4-isoxazolyl]methyl}oxy)-2-naphthalenyl]benzoic acid] | 102 to 1000
CC(C)c1onc(-c2c(Cl)cccc2Cl)c1CCc1nc2cc(-c3cccc(C(=O)O)c3)ccc2o1 [Example 39, 3-(2-{2-[3-(2,6-dichlorophenyl)-5-(1-methylethyl)-4-isoxazolyl]ethyl}-1,3-benzoxazol-5-yl)benzoic acid] | 1020 to 10000
CC(C)c1onc(-c2c(Cl)cccc2Cl)c1COc1ccc2c(Nc3cccc(C(=O)O)c3)cccc2c1 [Example 40, 3-{[6-({[3-(2,6-Dichlorophenyl)-5-(1-methylethyl)-4-isoxazolyl]methyl}oxy)-1-naphthalenyl]amino}benzoic acid] | 102 to 1000
CC(C)c1onc(-c2c(Cl)cccc2Cl)c1CCc1nc2cccc(Nc3cccc(C(=O)O)c3)c2o1 [Example 41, 3-[(2-{2-[3-(2,6-Dichlorophenyl)-5-(1-methylethyl)-4-isoxazolyl]ethyl}-1,3-benzoxazol-7-yl)amino]benzoic acid] | 1020 to 10000
CC(C)c1onc(-c2c(Cl)cccc2Cl)c1COc1ccc2c(c1)ncn2Cc1cccc(C(=O)O)c1 [Example 42, 3-{[5-({[3-(2,6-Dichlorophenyl)-5-(1-methylethyl)-4-isoxazolyl]methyl}oxy)-1H-benzimidazol-1-yl]methyl}benzoic acid] | 1020 to 10000
CC(C)c1onc(-c2c(Cl)cccc2Cl)c1COc1ccc2c(ccn2S(=O)(=O)c2cccc(C(=O)O)c2)c1 [Example 43, 3-{[5-({[3-(2,6-Dichlorophenyl)-5-(1-methylethyl)-4-isoxazolyl]methyl}oxy)-1H-indol-1-yl]sulfonyl}benzoic acid] | 102 to 1000
CC(C)c1onc(-c2c(Cl)cccc2Cl)c1COc1ccc2c(c1)CN(c1cccc(C(=O)O)c1)C2=O [Example 44, 3-[5-({[3-(2,6-Dichlorophenyl)-5-(1-methylethyl)-4-isoxazolyl]methyl}oxy)-1-oxo-1,3-dihydro-2H-isoindol-2-yl]benzoic acid] | 102 to 1000
